The source of these data is ChEMBL document CHEMBL1147989, “Synthesis and structure-activity relationships of 4-hydroxy-4-phenylpiperidines as nociceptin receptor ligands: Part 2” (Bioorg Med Chem Lett, 2007).

In one test the target is Mu-type opioid receptor (Homo sapiens, UniProt P35372). Briefly: Displacement of [3H]diprenorphine from human MOP receptor expressed in CHO cell membrane. It counts as cell membranes. (Displacement assays read how much labelled ligand stays bound in the presence of the test substance.)
Test [1] deals with Kappa-type opioid receptor (Homo sapiens, UniProt P41145). As to the kind of experiment: Displacement of [3H]diprenorphine from human KOP receptor expressed in CHO cell membrane. It counts as cell membranes.
Test [2] deals with T1, Nociceptin receptor (Homo sapiens, UniProt P41146). Briefly: Displacement of [125I][Tyr14]nociceptin FQ from human NOP receptor expressed in CHO cell membrane. It counts as cell membranes.
The target of test [3] is Delta-type opioid receptor (Homo sapiens, UniProt P41143). Briefly: Displacement of [3H]diprenorphine from human DOP receptor expressed in CHO cell membrane. It counts as cell membranes.
Test [4] deals with T1, Nociceptin receptor. As to the kind of experiment: Agonist activity at human NOP receptor transfected in CHO cells assessed as stimulation of [35S]GTPgammaS at 1 uM. It counts as functional, cell-based.

T1 sequence (P41146 whole entry): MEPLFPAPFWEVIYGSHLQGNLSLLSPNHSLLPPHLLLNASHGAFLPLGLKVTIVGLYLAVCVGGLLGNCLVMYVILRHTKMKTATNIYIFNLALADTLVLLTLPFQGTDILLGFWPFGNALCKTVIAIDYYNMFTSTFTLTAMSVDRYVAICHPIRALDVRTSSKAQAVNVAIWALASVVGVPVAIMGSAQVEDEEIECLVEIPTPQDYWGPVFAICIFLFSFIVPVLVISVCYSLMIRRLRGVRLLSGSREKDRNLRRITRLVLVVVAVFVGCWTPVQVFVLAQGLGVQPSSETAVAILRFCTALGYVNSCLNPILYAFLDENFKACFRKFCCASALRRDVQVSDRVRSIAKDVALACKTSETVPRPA
Chain of Mu-type opioid receptor (P35372 whole entry): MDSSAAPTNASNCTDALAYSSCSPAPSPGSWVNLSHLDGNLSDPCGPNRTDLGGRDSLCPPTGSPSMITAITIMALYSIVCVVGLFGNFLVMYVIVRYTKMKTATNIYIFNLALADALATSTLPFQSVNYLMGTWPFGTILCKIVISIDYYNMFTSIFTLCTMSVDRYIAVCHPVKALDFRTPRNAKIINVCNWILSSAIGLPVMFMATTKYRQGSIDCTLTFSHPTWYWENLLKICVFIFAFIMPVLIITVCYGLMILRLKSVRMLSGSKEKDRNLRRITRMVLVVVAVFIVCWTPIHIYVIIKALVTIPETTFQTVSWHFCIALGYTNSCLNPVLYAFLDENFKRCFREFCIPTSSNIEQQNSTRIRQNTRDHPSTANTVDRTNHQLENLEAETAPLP
Chain of Delta-type opioid receptor (P41143 whole entry): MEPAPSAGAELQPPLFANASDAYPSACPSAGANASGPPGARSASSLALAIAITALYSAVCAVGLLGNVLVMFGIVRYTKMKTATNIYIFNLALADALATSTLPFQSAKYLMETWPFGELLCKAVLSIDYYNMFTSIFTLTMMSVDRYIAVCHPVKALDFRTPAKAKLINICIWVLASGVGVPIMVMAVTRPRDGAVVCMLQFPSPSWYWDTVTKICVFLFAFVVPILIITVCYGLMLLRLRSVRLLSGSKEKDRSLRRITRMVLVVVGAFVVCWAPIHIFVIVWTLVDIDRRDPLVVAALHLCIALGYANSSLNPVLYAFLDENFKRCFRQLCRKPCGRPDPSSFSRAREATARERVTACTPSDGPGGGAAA
Chain of Kappa-type opioid receptor (P41145 whole entry): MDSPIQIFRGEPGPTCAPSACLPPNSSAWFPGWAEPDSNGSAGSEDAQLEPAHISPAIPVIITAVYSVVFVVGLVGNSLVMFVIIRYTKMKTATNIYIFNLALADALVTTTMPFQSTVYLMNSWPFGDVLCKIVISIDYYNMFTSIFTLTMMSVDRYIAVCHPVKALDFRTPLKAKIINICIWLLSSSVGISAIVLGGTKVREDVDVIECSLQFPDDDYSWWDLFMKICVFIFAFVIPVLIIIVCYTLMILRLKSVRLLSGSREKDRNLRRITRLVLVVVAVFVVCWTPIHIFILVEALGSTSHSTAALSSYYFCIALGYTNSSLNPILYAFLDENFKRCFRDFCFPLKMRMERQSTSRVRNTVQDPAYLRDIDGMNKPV

A word on the Ki: it is a dissociation constant, usually derived from enzyme kinetics or from competition with a known ligand. Lower therefore signals tighter binding. As to `CC(C)S(=O)(=O)N1CCN(Cc2ccccc2C2(O)CCN(C(c3ccccc3Cl)c3ccccc3Cl)CC2)CC1`, the Ki at Mu-type opioid receptor came to 0.353 µM; in test [1] it was 0.186 µM; at Nociceptin receptor [2], 0.0006 µM; in test [3], 3.16 µM.

For `Cc1ccsc1C1(O)CCN(C(c2ccccc2)c2ccccc2)CC1`, the Ki on Mu-type opioid receptor was 0.756 µM; in test [1], 2.57 µM; on Nociceptin receptor [2], 0.015 µM; in test [3], 8.88 µM.

With `OC1(c2ccccc2F)CCN(C(c2ccccc2)c2ccccc2)CC1`, the Ki on Mu-type opioid receptor stood at 0.589 µM; in test [1] it was 1.74 µM; at Nociceptin receptor [2], 0.034 µM; in test [3] it was 5.61 µM.

`Cc1cccc(C2(O)CCN(C(c3ccccc3)c3ccccc3)CC2)c1`: the Ki is 0.273 µM at Mu-type opioid receptor, 1.15 µM in test [1], 0.027 µM on Nociceptin receptor [2] and 7.8 µM in test [3].

Turning to `COc1cccc(C2(O)CCN(C(c3ccccc3)c3ccccc3)CC2)c1`, the Ki on Mu-type opioid receptor amounted to 2.99 µM; in test [1] it was 3.67 µM; on Nociceptin receptor [2], 0.18 µM; in test [3], 9.59 µM.

For `CNCc1ccccc1C1(O)CCN(C(c2ccccc2Cl)c2ccccc2Cl)CC1`, the Ki on Mu-type opioid receptor came to 0.167 µM; in test [1], 0.255 µM; at Nociceptin receptor [2], 0.0007 µM; in test [3], 3.82 µM.

Take `CC(C)(C)C1(O)CCN(C(c2ccccc2)c2ccccc2)CC1`: the Ki on Mu-type opioid receptor was determined as 3.6 µM; in test [1], 1.07 µM; on Nociceptin receptor [2], 0.062 µM; in test [3], 56.6 µM.

Regarding `OC1(c2ccccn2)CCN(C(c2ccccc2)c2ccccc2)CC1`, the inhibition constant Ki on Mu-type opioid receptor came out at 11.5 µM; in test [1] it was 13.2 µM; at Nociceptin receptor [2], 0.313 µM; in test [3], 45.6 µM.

Consider `OC1(CCCc2ccccc2)CCN(C(c2ccccc2)c2ccccc2)CC1`, for which the Ki on Mu-type opioid receptor was 3.36 µM; in test [1], 1.8 µM; on Nociceptin receptor [2], 1.67 µM; in test [3], 13.8 µM.

`Cc1ccccc1C(c1ccccc1C)N1CCC(O)(c2ccccc2CN)CC1`: the inhibition constant Ki came out at 0.19 µM at Mu-type opioid receptor, 0.45 µM in test [1], 0.0005 µM at Nociceptin receptor [2] and 8.44 µM in test [3]. Further, the Activity on Nociceptin receptor [4] worked out at 94%.

Turning to `CC(C)S(=O)(=O)NCc1ccccc1C1(O)CCN(C(c2ccccc2Cl)c2ccccc2Cl)CC1`, the Ki came to 0.163 µM at Mu-type opioid receptor, 0.174 µM in test [1], 0.0041 µM on Nociceptin receptor [2] and 0.518 µM in test [3].

With `OC1(Cc2ccccc2)CCN(C(c2ccccc2)c2ccccc2)CC1`, the Ki on Mu-type opioid receptor turned out to be 10.4 µM; in test [1] it was 1.44 µM; on Nociceptin receptor [2] it was 2.18 µM; in test [3] it was 15 µM.

As for `CCCCC(c1ccccc1)N1CCC(O)(c2ccccc2CN)CC1` (configuration not stated), the Ki worked out at 0.002 µM on Mu-type opioid receptor, 0.015 µM in test [1], 0.0004 µM at Nociceptin receptor [2] and 1.21 µM in test [3].

Take `OC1(c2ccccc2CN2CCOCC2)CCN(C(c2ccccc2Cl)c2ccccc2Cl)CC1`: the Ki on Mu-type opioid receptor amounted to 0.12 µM; in test [1], 0.323 µM; on Nociceptin receptor [2] it was 0.0059 µM; in test [3], 2.91 µM.

Regarding `CC(C)C1(O)CCN(C(c2ccccc2)c2ccccc2)CC1`, the Ki on Mu-type opioid receptor came out at 13.2 µM; in test [1], 7.39 µM; on Nociceptin receptor [2], 0.433 µM; in test [3], 52.8 µM.

Turning to `NCc1ccccc1C1(O)CCN(C(c2ccccc2)c2ccccc2)CC1`, the Ki worked out at 0.125 µM on Mu-type opioid receptor; 0.125 µM at Mu-type opioid receptor (cho); 1.66 µM in test [1]; 1.66 µM in test [1] (cho); 0.0016 µM on Nociceptin receptor [2]; 0.0016 µM at Nociceptin receptor [2] (cho). Moreover, the Ki in test [3] and in test [3] (cho) was 13.9 µM in each case.

With `OC1(c2ccco2)CCN(C(c2ccccc2)c2ccccc2)CC1`, the Ki amounted to 4.55 µM at Mu-type opioid receptor, 9.64 µM in test [1], 0.136 µM at Nociceptin receptor [2] and 14.5 µM in test [3].

Turning to `OC1(c2ccc(F)cc2)CCN(C(c2ccccc2)c2ccccc2)CC1`, the Ki on Mu-type opioid receptor is 0.771 µM; in test [1], 0.759 µM; at Nociceptin receptor [2], 0.014 µM; in test [3], 3.32 µM.

On to `CCNC(=O)NCc1ccccc1C1(O)CCN(C(c2ccccc2Cl)c2ccccc2Cl)CC1`, for which the Ki amounted to 0.304 µM on Mu-type opioid receptor, 0.33 µM in test [1], 0.012 µM on Nociceptin receptor [2] and 2.44 µM in test [3].

As to `CNC(=O)NCc1ccccc1C1(O)CCN(C(c2ccccc2Cl)c2ccccc2Cl)CC1`, the Ki at Mu-type opioid receptor was 0.198 µM; in test [1], 0.215 µM; on Nociceptin receptor [2] it was 0.002 µM; in test [3] it was 1.99 µM.

Take `NCc1ccccc1C1(O)CCN(C(c2ccccc2F)c2ccccc2F)CC1`: the Ki on Mu-type opioid receptor stood at 0.037 µM; in test [1], 0.116 µM; on Nociceptin receptor [2], 0.0005 µM; in test [3], 3.7 µM.

Consider `OC1(c2ccc(Br)cc2)CCN(C(c2ccccc2)c2ccccc2)CC1`, for which the Ki at Mu-type opioid receptor amounted to 1.06 µM; in test [1] it was 2.61 µM; on Nociceptin receptor [2] it was 0.051 µM; in test [3], 15.2 µM.

With `CCCS(=O)(=O)NCc1ccccc1C1(O)CCN(C(c2ccccc2Cl)c2ccccc2Cl)CC1`, the Ki on Mu-type opioid receptor is 0.271 µM; in test [1] it was 0.122 µM; at Nociceptin receptor [2], 0.015 µM; in test [3], 0.777 µM.

On to `OC1(c2ccc(Cl)cc2)CCN(C(c2ccccc2)c2ccccc2)CC1`, for which the Ki at Mu-type opioid receptor worked out at 0.936 µM; in test [1], 1.7 µM; at Nociceptin receptor [2], 0.024 µM; in test [3] it was 6.36 µM.

`NCc1ccccc1C1(O)CCN(Cc2ccccc2)CC1` yielded a Ki at Nociceptin receptor [2] of 0.455 µM.

Take `Cc1ccc(C2(O)CCN(C(c3ccccc3)c3ccccc3)CC2)cc1`: the inhibition constant Ki was found to be 0.94 µM on Mu-type opioid receptor, 4.05 µM in test [1], 0.055 µM at Nociceptin receptor [2] and 12.1 µM in test [3].

In the case of `CN1CCN(Cc2ccccc2C2(O)CCN(C(c3ccccc3Cl)c3ccccc3Cl)CC2)CC1`, the Ki at Mu-type opioid receptor is 0.19 µM; in test [1] it was 0.139 µM; at Nociceptin receptor [2], 0.0022 µM; in test [3] it was 1.7 µM.

In the case of `CCCCC1(O)CCN(C(c2ccccc2)c2ccccc2)CC1`, the Ki worked out at 0.272 µM on Mu-type opioid receptor, 4.56 µM in test [1], 0.023 µM at Nociceptin receptor [2] and 18.8 µM in test [3].

With `N#Cc1ccc(C2(O)CCN(C(c3ccccc3)c3ccccc3)CC2)cc1`, the Ki was determined as 8.38 µM on Mu-type opioid receptor, 61 µM in test [1], 1.45 µM at Nociceptin receptor [2] and 28.4 µM in test [3].

`CN(C)c1ccc(C2(O)CCN(C(c3ccccc3)c3ccccc3)CC2)cc1` gave a Ki at Nociceptin receptor [2] of 4.54 µM.

Turning to `COc1ccc(C2(O)CCN(C(c3ccccc3)c3ccccc3)CC2)cc1`, the Ki was 11.1 µM on Mu-type opioid receptor, 10.3 µM in test [1], 0.588 µM at Nociceptin receptor [2] and 19.2 µM in test [3].

On to `OC1(C2CC2)CCN(C(c2ccccc2)c2ccccc2)CC1`, for which the Ki worked out at 18.4 µM on Mu-type opioid receptor, 26.4 µM in test [1], 0.376 µM at Nociceptin receptor [2] and 131 µM in test [3].

On to `CCCc1ccc(C2(O)CCN(C(c3ccccc3)c3ccccc3)CC2)cc1`, for which the Ki was 11.4 µM on Mu-type opioid receptor, 19.7 µM in test [1], 1.75 µM on Nociceptin receptor [2] and 33.3 µM in test [3].

Regarding `CCCCc1ccc(C2(O)CCN(C(c3ccccc3)c3ccccc3)CC2)cc1`, the affinity at Nociceptin receptor [2], expressed as Ki, was 9.16 µM.

As to `OCc1ccccc1C1(O)CCN(C(c2ccccc2)c2ccccc2)CC1`, the inhibitory constant (Ki) at Mu-type opioid receptor was 0.186 µM; in test [1], 2.77 µM; at Nociceptin receptor [2] it was 0.016 µM; in test [3], 4.36 µM.

As to `COc1ccccc1C1(O)CCN(C(c2ccccc2)c2ccccc2)CC1`, the inhibition constant (Ki) at Mu-type opioid receptor turned out to be 0.983 µM; in test [1], 4.16 µM; on Nociceptin receptor [2] it was 0.085 µM; in test [3] it was 4.39 µM.

Turning to `OC1(c2cccs2)CCN(C(c2ccccc2)c2ccccc2)CC1`, the Ki at Mu-type opioid receptor is 1.73 µM; in test [1], 3.41 µM; at Nociceptin receptor [2], 0.048 µM; in test [3], 8.45 µM.

`NCc1ccccc1C1(O)CCN(C(c2cccc(F)c2)c2cccc(F)c2)CC1`: the Ki on Mu-type opioid receptor came to 0.616 µM; in test [1] it was 0.771 µM; on Nociceptin receptor [2] it was 0.0096 µM; in test [3] it was 9.38 µM.

Take `Cc1ccc(C(c2ccc(C)cc2)N2CCC(O)(c3ccccc3CN)CC2)cc1`: the Ki is 0.502 µM at Mu-type opioid receptor, 1.06 µM in test [1], 0.11 µM at Nociceptin receptor [2] and 8.9 µM in test [3].

On to `CCS(=O)(=O)N1CCN(Cc2ccccc2C2(O)CCN(C(c3ccccc3Cl)c3ccccc3Cl)CC2)CC1`, for which the inhibition constant Ki at Mu-type opioid receptor came to 0.351 µM; in test [1], 0.146 µM; on Nociceptin receptor [2] it was 0.0009 µM; in test [3], 1.59 µM.

In the case of `CCCCCCC1(O)CCN(C(c2ccccc2)c2ccccc2)CC1`, the Ki at Mu-type opioid receptor is 8.9 µM; in test [1], 9.22 µM; at Nociceptin receptor [2] it was 1.15 µM; in test [3], 17.9 µM.

Take `OC1(c2ccccc2CN2CCNCC2)CCN(C(c2ccccc2Cl)c2ccccc2Cl)CC1`: the Ki was determined as 0.145 µM at Mu-type opioid receptor, 0.261 µM in test [1], 0.0019 µM at Nociceptin receptor [2] and 1.17 µM in test [3].

Regarding `CCCCCC(c1ccccc1)N1CCC(O)(c2ccccc2CN)CC1` (configuration not stated), the Ki on Mu-type opioid receptor stood at 0.002 µM; in test [1], 0.03 µM; at Nociceptin receptor [2] it was 0.0005 µM; in test [3], 0.606 µM.

As to `CCc1ccc(C2(O)CCN(C(c3ccccc3)c3ccccc3)CC2)cc1`, the Ki on Mu-type opioid receptor turned out to be 3.43 µM; in test [1], 11.4 µM; at Nociceptin receptor [2], 1.28 µM; in test [3], 24.9 µM.

On to `NCc1ccccc1C1(O)CCN(C(c2ccc(Cl)cc2)c2ccc(Cl)cc2)CC1`, for which the inhibitory constant (Ki) at Mu-type opioid receptor turned out to be 3.08 µM; in test [1], 2.09 µM; at Nociceptin receptor [2], 0.674 µM; in test [3] it was 3.99 µM.

`OC1(c2nccs2)CCN(C(c2ccccc2)c2ccccc2)CC1` returned a Ki at Nociceptin receptor [2] of 1.27 µM. In other words, the single-digit micromolar range.
